Data as given in patent US7951530B2, “Cyclic maltosylmaltose, cyclic maltosymaltose-forming enzyme, their preparation and uses” (Kabushiki Kaisha Hayashibara Seibutsu Kagaku Kenkyujo, priority 2003, dated 2011).

Assay: Thermal stability of CMM
Format: physicochemical
Conditions: 7% (w/v) CMM, 120° C.; for Purity (%): HPLC
Experimental: A powdery hydrous crystalline CMM was dissolved in water for preparing an aqueous solution containing 7% (w/v) of CMM. Eight milliliters each of the resulting solution was pored into a glass tube, sealed closely, and then heated at 120° C. for 30 to 90 min. After cooling the solution, the degree of coloring of the solution was measured. Further, the purity of CMM in the solution was measured by HPLC. The degree of coloring was defined as an absorbance at 480 nm using a 1 cm-cell.

SMILES: OC[C@H]1O[C@@H]2OC[C@H]3O[C@H](O[C@H]4[C@H](O)[C@@H](O)[C@@H](OC[C@H]5O[C@H](O[C@H]1[C@H](O)[C@H]2O)[C@H](O)[C@@H](O)[C@@H]5O)O[C@@H]4CO)[C@H](O)[C@@H](O)[C@@H]3O [CMM, cyclo{>6)-α-D-glucopyranosyl-(1>4)-α-D-glucopyranosyl-(1>6)-α-D-glucopyranosyl-(1>4)-α-D-glucopyranosyl-(1>}]
- Degree of coloring (A480 nm) (heating time 0 min): 0
- Purity (%) (heating time 0 min): 100%
- Degree of coloring (A480 nm) (heating time 30 min): 0
- Purity (%) (heating time 30 min): 100%
- Degree of coloring (A480 nm) (heating time 60 min): 0
- Purity (%) (heating time 60 min): 100%
- Degree of coloring (A480 nm) (heating time 90 min): 0
- Purity (%) (heating time 90 min): 100%
